According to patent US20090142330A1, “Use of inactive-plasmin to treat chronic inflammatory disease and tumors” (The Government of the United States of America as …, priority 2007, published 2009):

Columns and labels:
Format in all cases: cell-based, human
cyclooxygenase-2 (COX-2) = assay: COX-2 protein in monocyte membranes, Western blot; details: LPS 25 ng/ml; HMW-uPA 30 nM or plasmin 360 nM; FIG. 4A
Experimental: Cell protein isolation for the determination of COX-2 protein levels were prepared as previously described (Zhang et al., J. Clin. Invest. 99: 894-900, 1997). Briefly, 20×10^6 monocytes in 4 ml of DMEM were cultured in suspension in 17 ml polypropylene tubes overnight in the presence or absence of reagents. The cells were then washed in phosphate buffered saline with protease inhibitors. The cell pellets were resuspended in 250 mM sucrose containing protease inhibitors and sonicated (Ultrasonic Cell Disrupter, Kontes, American Instrument Exchange, Inc., Haverhill, Mass.). Nuclear debris and unbroken cells were pelleted at 100×g and the supernatant microfuged at 1,500×g to pellet cell membrane proteins. Equal amounts of protein were loaded onto 12% Tris Glycine gels. […] Equal loading of samples was measured with mouse anti-β-actin antibodies.
(§1) Western blots for MMP-1, MAPKs and COX-2 were incubated overnight with primary antibodies, washed and analyzed by the addition of Alexa Fluor 680 goat anti-rabbit or Alexa Fluor 750 goat anti-mouse antibodies (Molecular Probes® Inc., Eugene, Oreg.) and the infrared fluorescence detected with the Odyssey infrared imaging system (LI-COR, Lincoln, Nebr.). Densitometry analysis of the bands on the Western blots was determined with the LI-COR software analysis program or the ImageQuant software analysis program (Amersham Biosciences, Piscataway, N.J.).

PGE2 = PGE2 in monocyte culture supernatants, ELISA; details: LPS-stimulated monocytes, 24 hours; FIG. 4B
Experimental: FIGS. 4A-4C illustrate that stimulation of MMP-1 by HMW-uPA and plasmin is mediated in part by PGE2. FIG. 4A is a digital image depicting cyclooxygenase-2 (COX-2) protein levels detected in monocyte cultures determined by Western blot analysis in the presence of HMW-uPA (30 nM) or plasmin (360 nM) in the absence or presence of LPS (25 ng/ml). β-actin protein levels were detected to serve as an indicator for equal sample loading. FIG. 4B is a bar graph illustrating media levels of PGE2 measured by ELISA at 24 hours. FIG. 4C is a digital image illustrating MMP-1 protein levels detected by Western blot analysis in monocyte cultures following incubation with indomethacin for 30 minutes prior to the addition of LPS, HMW-uPA, plasmin or PGE2 (1 μM).

MMP-1 mRNA in monocytes = assay: MMP-1 mRNA in monocytes, semiquantitative RT-PCR; details: FIG. 2C
Experimental: Plasmin activity assay. Plasmin activity was determined with the SPECTROZYME PL kit (American Diagnostica Inc., Stamford, Conn.) which utilizes the chromogenic substrate H-D-norleucyl-hexahydrotyrosol-lysine-para-nitroanilide diacetate. For detection of cell-associated plasmin activity, monocytes were cultured at 1×10^6/well in Hanks Balanced Solution containing calcium and magnesium (Hyclone, Logan, Utah) with the plasmin substrate. Kinetic absorbance readings were measured at 405 nm. RT-PCR. Total cellular RNA was extracted with the RNeasy Mini Kit (QIAGEN® Inc., Valencia, Calif.) 8 hours after stimulation of monocytes with LPS. Transcript levels of MMP-1 were determined using semiquantitative reverse transcriptase-polymerase chain reaction (RT-PCR) with GADPH as an internal control. […] The amplified DNA was separated by 1.7% agarose gel electrophoresis, stained with SYTO 60 red fluorescent nucleic acid stain (Molecular Probes®, Eugene, Oreg.), and the intensity of the stained bands was analyzed with an infrared imaging system. […] FITC-conjugated BSA, plasmin (2.5 μg in 10 μl) or anti-human antibodies (1-2.5 μg/10 μl) then were added, respectively, incubated for 30 min and washed and analyzed by the FACSCalibur system (Becton Dickinson Biosciences, Franklin Lakes, N.J.). […] Flow cytometry results were analyzed by CELLQuest software (Becton Dickinson Biosciences, Franklin Lakes, N.J.). […]

ERK1/2 = assay: Phosphorylation of ERK1/2 in monocytes, Western blot; details: LPS-stimulated monocytes, 1 hour; FIG. 5B
Experimental: (§2) For detection of the levels of activated ERK1/2 and p38 MAPKs monocytes were cultured in DMEM at 5×10^6/ml in suspension. Ten to 60 minutes after the addition of reagents, the cells were pelleted and lysed with SDS loading buffer (prepared as described above). The supernatants were loaded onto 12% Tris-glycine gels. The blots were then incubated overnight with mouse anti-human antibodies against the phosphorylated forms of ERK1/2 and p38 and with rabbit anti-human antibodies against total ERK1/2 and p38 as a measure of equal loading of the gels.
as §1

p38 MAPK = assay: Phosphorylation of p38 MAPK in monocytes, Western blot; details: LPS-stimulated monocytes, 1 hour; FIG. 5B
Experimental: as §2, §1

## plasmin
cyclooxygenase-2 (COX-2)
  LPS-induced COX-2 protein level: increased
PGE2
  PGE2 levels in monocyte culture supernatants: increased PGE2 levels
MMP-1 mRNA in monocytes; LPS-stimulated monocytes, 8 hours
  MMP-1 mRNA level: dose-dependent increase
MMP-1 mRNA in monocytes; control (unstimulated) monocytes
  induction of MMP-1 mRNA: did not induce MMP-1
ERK1/2
  phosphorylation of ERK1/2: induced increases
p38 MAPK
  phosphorylation of p38: induced increases
